From ChEMBL document CHEMBL5131520, “Synthesis and Antitumor Activity of Diosgenin Hydroxamic Acid and Quaternary Phosphonium Salt Derivatives” (ACS Med Chem Lett, 2022)
Where a name gives a salt, the structure may show the parent alone.

Assays:
NCI-H358 = assay: Antiproliferative activity against human NCI-H358 cells assessed as inhibition of cell growth incubated for 48 hrs by CCK8 assay; format: functional, cell-based; conditions: NCI-H358, 48 h
HCT-116 = assay: Antiproliferative activity against human HCT-116 cells assessed as inhibition of cell growth incubated for 48 hrs by CCK8 assay; format: functional, cell-based; conditions: HCT-116, 48 h
[1] = Water solubility of compound; format: physicochemical; conditions: buffer
ASPC1 = assay: Antiproliferative activity against human ASPC1 cells assessed as inhibition of cell growth incubated for 48 hrs by CCK8 assay; format: functional, cell-based; conditions: ASPC1, 48 h
SW-620 = assay: Antiproliferative activity against human SW-620 cells assessed as inhibition of cell growth incubated for 48 hrs by CCK8 assay; format: functional, cell-based; conditions: SW-620, 48 h

| Structure (SMILES) | IC50 (NCI-H358) | IC50 (HCT-116) | solubility [1] | IC50 (ASPC1) | IC50 (SW-620) |
| --- | --- | --- | --- | --- | --- |
| C[C@@H]1CC[C@@]2(OC1)O[C@H]1C[C@H]3[C@@H]4CC=C5C[C@@H](OC(=O)c6cccc(C(=O)NO)c6)CC[C@]5(C)[C@H]4CC[C@]3(C)[C@H]1[C@@H]2C | 9.54 µM | 34.4 µM | Soluble | 4.96 µM | 6.8 µM |
| C[C@@H]1CC[C@@]2(OC1)O[C@H]1C[C@H]3[C@@H]4CC=C5C[C@@H](OC(=O)CCCC[P+](c6ccccc6)(c6ccccc6)C6CCCCC6)CC[C@]5(C)[C@H]4CC[C@]3(C)[C@H]1[C@@H]2C.[Br-] | 3.52 µM | 4.15 µM | Soluble | 0.313 µM | 0.873 µM |
| C[C@@H]1CC[C@@]2(OC1)O[C@H]1C[C@H]3[C@@H]4CC=C5C[C@@H](OC(=O)CCCC[P+](c6ccccc6)(c6ccccc6)c6cccc(-c7ccccc7)c6)CC[C@]5(C)[C@H]4CC[C@]3(C)[C@H]1[C@@H]2C.[Br-] | 3.66 µM | 4.22 µM | Soluble | 0.29 µM | 1.16 µM |
| C[C@@H]1CC[C@@]2(OC1)O[C@H]1C[C@H]3[C@@H]4CC=C5C[C@@H](OC(=O)c6nccnc6C(=O)NO)CC[C@]5(C)[C@H]4CC[C@]3(C)[C@H]1[C@@H]2C | 35.5 µM | 35.8 µM | Soluble | 9.29 µM | > 40 µM |
| C[C@@H]1CC[C@@]2(OC1)O[C@H]1C[C@H]3[C@@H]4CC=C5C[C@@H](OC(=O)/C=C/C(=O)NO)CC[C@]5(C)[C@H]4CC[C@]3(C)[C@H]1[C@@H]2C | 36.8 µM | 39 µM | Soluble | 11.4 µM | 16.9 µM |
| C[C@@H]1CC[C@@]2(OC1)O[C@H]1C[C@H]3[C@@H]4CC=C5C[C@@H](OC(=O)CCCC[P+](C6CCCCC6)(C6CCCCC6)C6CCCCC6)CC[C@]5(C)[C@H]4CC[C@]3(C)[C@H]1[C@@H]2C.[Br-] | 4.04 µM | 4 µM | Soluble | 0.185 µM | 0.448 µM |
| CCCC[P+](CCCC)(CCCC)CCCCC(=O)O[C@H]1CC[C@@]2(C)C(=CC[C@H]3[C@@H]4C[C@@H]5O[C@]6(CC[C@@H](C)CO6)[C@@H](C)[C@@H]5[C@@]4(C)CC[C@@H]32)C1.[Br-] | 2.18 µM | 3.99 µM | Soluble | 1.09 µM | 1.17 µM |
| C[C@@H]1CC[C@@]2(OC1)O[C@H]1C[C@H]3[C@@H]4CC=C5C[C@@H](OC(=O)CCCC[P+](c6ccc(Cl)cc6)(c6ccc(Cl)cc6)c6ccc(Cl)cc6)CC[C@]5(C)[C@H]4CC[C@]3(C)[C@H]1[C@@H]2C.[Br-] | 1.71 µM | 4.32 µM | Soluble | 0.652 µM | 6.8 µM |
| Cc1cc(C(=O)NO)cc(C(=O)O[C@H]2CC[C@@]3(C)C(=CC[C@H]4[C@@H]5C[C@@H]6O[C@]7(CC[C@@H](C)CO7)[C@@H](C)[C@@H]6[C@@]5(C)CC[C@@H]43)C2)c1 | 15.2 µM | 32.8 µM | Soluble | 7.8 µM | 10.7 µM |
| C[C@@H]1CC[C@@]2(OC1)O[C@H]1C[C@H]3[C@@H]4CC=C5C[C@@H](OC(=O)CCCC(=O)NO)CC[C@]5(C)[C@H]4CC[C@]3(C)[C@H]1[C@@H]2C | 4.32 µM | 32.5 µM | Soluble | 2.14 µM | 2.43 µM |
| C[C@@H]1CC[C@@]2(OC1)O[C@H]1C[C@H]3[C@@H]4CC=C5C[C@@H](OC(=O)CCCCC(=O)NO)CC[C@]5(C)[C@H]4CC[C@]3(C)[C@H]1[C@@H]2C | 12.6 µM | 38.8 µM | Soluble | 2.31 µM | 1.92 µM |
| C[C@@H]1CC[C@@]2(OC1)O[C@H]1C[C@H]3[C@@H]4CC=C5C[C@@H](OC(=O)CCCC[P+](c6ccccc6)(c6ccccc6)c6ccccn6)CC[C@]5(C)[C@H]4CC[C@]3(C)[C@H]1[C@@H]2C.[Br-] | 3.54 µM | 4.25 µM | Soluble | 0.648 µM | 0.778 µM |
| C[C@@H]1CC[C@@]2(OC1)O[C@H]1C[C@H]3[C@@H]4CC=C5C[C@@H](OC(=O)CCC(=O)NO)CC[C@]5(C)[C@H]4CC[C@]3(C)[C@H]1[C@@H]2C | 7.47 µM | 31.8 µM | Soluble | 7.99 µM | 5.22 µM |
| C[C@@H]1CC[C@@]2(OC1)O[C@H]1C[C@H]3[C@@H]4CC=C5C[C@@H](OC(=O)CCCC[P+](c6ccc(F)cc6)(c6ccc(F)cc6)c6ccc(F)cc6)CC[C@]5(C)[C@H]4CC[C@]3(C)[C@H]1[C@@H]2C.[Br-] | 3.82 µM | 4.16 µM | Soluble | 0.728 µM | 1.42 µM |
| C[C@@H]1CC[C@@]2(OC1)O[C@H]1C[C@H]3[C@@H]4CC=C5C[C@@H](OC(=O)CCCCCCC(=O)NO)CC[C@]5(C)[C@H]4CC[C@]3(C)[C@H]1[C@@H]2C | 23.1 µM | > 40 µM | Soluble | 22.9 µM | 11.1 µM |
| C[C@@H]1CC[C@@]2(OC1)O[C@H]1C[C@H]3[C@@H]4CC=C5C[C@@H](OC(=O)CCCC[P+](C)(C)C)CC[C@]5(C)[C@H]4CC[C@]3(C)[C@H]1[C@@H]2C.[Br-] | 13.6 µM | 10.1 µM | Soluble | 7.44 µM | 9.59 µM |
| CCCCCCCC[P+](CCCCCCCC)(CCCCCCCC)CCCCC(=O)O[C@H]1CC[C@@]2(C)C(=CC[C@H]3[C@@H]4C[C@@H]5O[C@]6(CC[C@@H](C)CO6)[C@@H](C)[C@@H]5[C@@]4(C)CC[C@@H]32)C1.[Br-] | 27.1 µM | 31.4 µM | Soluble | 7.63 µM | 29 µM |
| CC[P+](CC)(CC)CCCCC(=O)O[C@H]1CC[C@@]2(C)C(=CC[C@H]3[C@@H]4C[C@@H]5O[C@]6(CC[C@@H](C)CO6)[C@@H](C)[C@@H]5[C@@]4(C)CC[C@@H]32)C1.[Br-] | 3.51 µM | 5 µM | Soluble | 2.62 µM | 4.39 µM |
| C[C@@H]1CC[C@@]2(OC1)O[C@H]1C[C@H]3[C@@H]4CC=C5C[C@@H](OC(=O)CCCCCCCCC(=O)NO)CC[C@]5(C)[C@H]4CC[C@]3(C)[C@H]1[C@@H]2C | 10.4 µM | 33.4 µM | Soluble | 15 µM | 23.4 µM |
| C[C@@H]1CC[C@@]2(OC1)O[C@H]1C[C@H]3[C@@H]4CC=C5C[C@@H](O)CC[C@]5(C)[C@H]4CC[C@]3(C)[C@H]1[C@@H]2C [DISOGENIN] | > 40 µM | 31.4 µM |  | 63.1 µM | > 40 µM |
| COc1cccc2c1C(=O)c1c(O)c3c(c(O)c1C2=O)C[C@@](O)(C(=O)CO)C[C@@H]3O[C@H]1C[C@H](N)[C@H](O)[C@H](C)O1 [DOXORUBICIN HYDROCHLORIDE] | < 5 µM | > 1.25 µM |  | < 5 µM | < 5 µM |
